The source of these data is ChEMBL document CHEMBL1154600, “Knowledge-based characterization of similarity relationships in the human protein-tyrosine phosphatase family for rational inhibitor design” (J Med Chem, 2009).

Assay [1] deals with Tyrosine-protein phosphatase non-receptor type 6 (Homo sapiens, UniProt P29350).
The target of assay [2] is T1, Receptor-type tyrosine-protein phosphatase C (Homo sapiens, UniProt P08575).
T1 sequence (P08575 whole entry): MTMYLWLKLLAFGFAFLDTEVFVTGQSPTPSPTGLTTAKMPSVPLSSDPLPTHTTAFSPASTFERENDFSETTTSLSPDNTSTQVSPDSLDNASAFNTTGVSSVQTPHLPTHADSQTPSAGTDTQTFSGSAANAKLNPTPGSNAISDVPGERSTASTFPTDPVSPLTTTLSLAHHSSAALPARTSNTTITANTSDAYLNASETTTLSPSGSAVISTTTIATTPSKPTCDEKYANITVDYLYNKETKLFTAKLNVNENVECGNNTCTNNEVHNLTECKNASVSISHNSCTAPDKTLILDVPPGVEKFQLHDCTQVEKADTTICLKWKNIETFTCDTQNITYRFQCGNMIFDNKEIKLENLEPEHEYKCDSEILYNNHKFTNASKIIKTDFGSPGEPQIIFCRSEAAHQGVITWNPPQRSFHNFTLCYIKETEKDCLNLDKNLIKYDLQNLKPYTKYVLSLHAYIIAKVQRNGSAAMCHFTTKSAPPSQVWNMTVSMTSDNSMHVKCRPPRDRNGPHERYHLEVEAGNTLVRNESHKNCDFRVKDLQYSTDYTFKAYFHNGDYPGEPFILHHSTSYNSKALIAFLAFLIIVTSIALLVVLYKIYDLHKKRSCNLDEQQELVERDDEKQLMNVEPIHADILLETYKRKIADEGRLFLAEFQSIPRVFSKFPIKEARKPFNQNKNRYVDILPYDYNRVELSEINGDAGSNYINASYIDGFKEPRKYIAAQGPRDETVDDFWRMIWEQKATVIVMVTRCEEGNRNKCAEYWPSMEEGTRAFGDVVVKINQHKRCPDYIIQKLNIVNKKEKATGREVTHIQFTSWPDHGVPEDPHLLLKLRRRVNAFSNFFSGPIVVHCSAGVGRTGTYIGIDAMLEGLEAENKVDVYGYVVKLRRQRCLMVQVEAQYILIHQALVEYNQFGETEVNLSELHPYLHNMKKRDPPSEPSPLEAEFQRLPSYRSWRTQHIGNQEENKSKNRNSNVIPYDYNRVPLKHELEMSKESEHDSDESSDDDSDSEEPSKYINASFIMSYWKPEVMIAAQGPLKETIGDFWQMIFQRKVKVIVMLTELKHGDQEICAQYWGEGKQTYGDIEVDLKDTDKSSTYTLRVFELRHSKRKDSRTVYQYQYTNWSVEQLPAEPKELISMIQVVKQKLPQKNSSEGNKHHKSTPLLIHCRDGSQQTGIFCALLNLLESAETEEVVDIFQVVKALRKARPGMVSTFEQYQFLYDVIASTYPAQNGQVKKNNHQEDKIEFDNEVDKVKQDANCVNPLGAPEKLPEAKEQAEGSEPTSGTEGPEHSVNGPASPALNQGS
In words: Inhibition of PTPRC.

Assay [3] deals with Receptor-type tyrosine-protein phosphatase beta (Homo sapiens, UniProt P23467). In words: Inhibition of PTPRB.
Sequence of Receptor-type tyrosine-protein phosphatase beta (P23467 whole entry): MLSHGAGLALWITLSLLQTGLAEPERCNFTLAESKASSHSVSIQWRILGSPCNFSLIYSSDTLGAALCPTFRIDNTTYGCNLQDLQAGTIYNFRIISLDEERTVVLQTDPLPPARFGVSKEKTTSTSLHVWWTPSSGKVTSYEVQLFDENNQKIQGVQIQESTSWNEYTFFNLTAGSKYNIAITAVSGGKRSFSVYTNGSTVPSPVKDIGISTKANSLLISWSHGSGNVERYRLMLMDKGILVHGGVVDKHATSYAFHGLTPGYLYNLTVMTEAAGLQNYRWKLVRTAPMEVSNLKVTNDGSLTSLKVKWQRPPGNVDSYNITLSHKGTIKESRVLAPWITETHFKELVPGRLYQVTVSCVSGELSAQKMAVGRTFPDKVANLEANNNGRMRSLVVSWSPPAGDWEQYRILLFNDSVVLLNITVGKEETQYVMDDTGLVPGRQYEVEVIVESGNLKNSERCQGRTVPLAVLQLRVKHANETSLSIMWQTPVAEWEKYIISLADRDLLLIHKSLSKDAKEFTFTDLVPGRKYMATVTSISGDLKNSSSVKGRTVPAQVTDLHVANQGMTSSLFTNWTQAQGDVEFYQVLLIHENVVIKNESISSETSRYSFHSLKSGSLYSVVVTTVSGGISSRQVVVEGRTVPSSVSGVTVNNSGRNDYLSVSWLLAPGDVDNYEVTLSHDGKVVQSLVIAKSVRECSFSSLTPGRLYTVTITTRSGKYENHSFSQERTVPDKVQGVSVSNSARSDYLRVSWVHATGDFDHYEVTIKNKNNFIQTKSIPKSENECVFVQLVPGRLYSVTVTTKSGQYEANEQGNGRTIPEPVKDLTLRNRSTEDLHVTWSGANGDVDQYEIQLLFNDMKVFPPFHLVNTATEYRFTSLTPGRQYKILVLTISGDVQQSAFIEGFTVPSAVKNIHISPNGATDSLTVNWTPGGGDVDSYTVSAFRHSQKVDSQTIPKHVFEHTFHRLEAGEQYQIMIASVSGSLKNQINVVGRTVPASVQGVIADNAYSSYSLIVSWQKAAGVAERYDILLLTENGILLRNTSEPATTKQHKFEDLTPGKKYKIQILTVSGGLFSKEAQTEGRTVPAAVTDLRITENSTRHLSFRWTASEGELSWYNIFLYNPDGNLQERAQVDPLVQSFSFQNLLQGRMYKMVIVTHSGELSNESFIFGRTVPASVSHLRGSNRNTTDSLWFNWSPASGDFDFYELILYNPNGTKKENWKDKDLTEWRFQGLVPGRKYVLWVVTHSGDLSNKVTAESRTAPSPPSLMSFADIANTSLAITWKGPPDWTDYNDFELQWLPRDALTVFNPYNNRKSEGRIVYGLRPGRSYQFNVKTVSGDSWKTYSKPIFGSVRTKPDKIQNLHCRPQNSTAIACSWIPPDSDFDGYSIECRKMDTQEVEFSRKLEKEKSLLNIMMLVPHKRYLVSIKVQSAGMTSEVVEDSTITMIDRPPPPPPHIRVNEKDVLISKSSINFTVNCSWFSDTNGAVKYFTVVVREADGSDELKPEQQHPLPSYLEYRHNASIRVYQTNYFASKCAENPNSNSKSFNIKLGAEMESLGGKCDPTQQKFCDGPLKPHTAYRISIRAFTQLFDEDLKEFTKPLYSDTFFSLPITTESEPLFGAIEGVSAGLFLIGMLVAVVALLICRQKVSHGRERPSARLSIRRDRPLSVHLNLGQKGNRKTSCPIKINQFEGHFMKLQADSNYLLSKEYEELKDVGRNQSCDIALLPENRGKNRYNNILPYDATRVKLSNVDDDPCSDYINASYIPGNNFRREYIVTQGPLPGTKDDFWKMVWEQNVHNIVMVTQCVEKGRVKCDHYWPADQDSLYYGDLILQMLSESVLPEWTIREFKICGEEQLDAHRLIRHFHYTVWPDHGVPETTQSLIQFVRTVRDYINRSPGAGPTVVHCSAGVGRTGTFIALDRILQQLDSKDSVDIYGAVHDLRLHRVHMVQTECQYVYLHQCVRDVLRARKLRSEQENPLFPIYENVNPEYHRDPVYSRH
In assay [4] the target is Receptor-type tyrosine-protein phosphatase epsilon (Homo sapiens, UniProt P23469).
Sequence of Receptor-type tyrosine-protein phosphatase epsilon (P23469 whole entry): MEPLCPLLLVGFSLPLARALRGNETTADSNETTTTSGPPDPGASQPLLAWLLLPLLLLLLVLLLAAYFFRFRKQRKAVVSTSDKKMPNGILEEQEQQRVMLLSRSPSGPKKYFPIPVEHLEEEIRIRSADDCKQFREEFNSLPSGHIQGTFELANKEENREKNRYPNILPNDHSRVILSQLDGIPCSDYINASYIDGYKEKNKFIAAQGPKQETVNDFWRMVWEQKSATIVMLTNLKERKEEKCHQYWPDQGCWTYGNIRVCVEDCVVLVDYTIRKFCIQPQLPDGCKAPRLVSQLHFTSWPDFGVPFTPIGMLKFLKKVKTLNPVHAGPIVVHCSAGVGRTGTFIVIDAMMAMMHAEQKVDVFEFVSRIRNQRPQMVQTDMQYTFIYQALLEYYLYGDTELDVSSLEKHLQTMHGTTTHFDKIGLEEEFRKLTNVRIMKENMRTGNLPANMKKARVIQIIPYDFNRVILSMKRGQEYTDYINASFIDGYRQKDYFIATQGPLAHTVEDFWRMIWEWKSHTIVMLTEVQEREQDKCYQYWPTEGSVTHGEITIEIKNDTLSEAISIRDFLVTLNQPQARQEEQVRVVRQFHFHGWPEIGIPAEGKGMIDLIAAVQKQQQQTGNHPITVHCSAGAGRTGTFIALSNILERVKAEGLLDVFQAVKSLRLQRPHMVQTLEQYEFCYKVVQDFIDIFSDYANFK
For assay [5], the target named is T2, Tyrosine-protein phosphatase non-receptor type 2 (Homo sapiens, UniProt P17706).
T2 sequence (P17706 whole entry): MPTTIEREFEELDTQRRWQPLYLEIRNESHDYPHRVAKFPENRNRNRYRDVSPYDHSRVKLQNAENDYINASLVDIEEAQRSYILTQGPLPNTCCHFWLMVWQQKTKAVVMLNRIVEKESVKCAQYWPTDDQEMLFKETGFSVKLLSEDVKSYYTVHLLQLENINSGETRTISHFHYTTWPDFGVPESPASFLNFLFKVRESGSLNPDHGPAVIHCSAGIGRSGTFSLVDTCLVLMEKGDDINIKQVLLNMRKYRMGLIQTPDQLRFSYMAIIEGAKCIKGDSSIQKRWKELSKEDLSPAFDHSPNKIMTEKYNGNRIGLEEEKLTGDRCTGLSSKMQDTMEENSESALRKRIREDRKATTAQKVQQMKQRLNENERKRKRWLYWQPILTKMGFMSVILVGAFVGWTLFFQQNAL

The target in assay [6] is Receptor-type tyrosine-protein phosphatase F (Homo sapiens, UniProt P10586). The assay is described as follows: Inhibition of PTPRF.
Sequence of Receptor-type tyrosine-protein phosphatase F (P10586 whole entry): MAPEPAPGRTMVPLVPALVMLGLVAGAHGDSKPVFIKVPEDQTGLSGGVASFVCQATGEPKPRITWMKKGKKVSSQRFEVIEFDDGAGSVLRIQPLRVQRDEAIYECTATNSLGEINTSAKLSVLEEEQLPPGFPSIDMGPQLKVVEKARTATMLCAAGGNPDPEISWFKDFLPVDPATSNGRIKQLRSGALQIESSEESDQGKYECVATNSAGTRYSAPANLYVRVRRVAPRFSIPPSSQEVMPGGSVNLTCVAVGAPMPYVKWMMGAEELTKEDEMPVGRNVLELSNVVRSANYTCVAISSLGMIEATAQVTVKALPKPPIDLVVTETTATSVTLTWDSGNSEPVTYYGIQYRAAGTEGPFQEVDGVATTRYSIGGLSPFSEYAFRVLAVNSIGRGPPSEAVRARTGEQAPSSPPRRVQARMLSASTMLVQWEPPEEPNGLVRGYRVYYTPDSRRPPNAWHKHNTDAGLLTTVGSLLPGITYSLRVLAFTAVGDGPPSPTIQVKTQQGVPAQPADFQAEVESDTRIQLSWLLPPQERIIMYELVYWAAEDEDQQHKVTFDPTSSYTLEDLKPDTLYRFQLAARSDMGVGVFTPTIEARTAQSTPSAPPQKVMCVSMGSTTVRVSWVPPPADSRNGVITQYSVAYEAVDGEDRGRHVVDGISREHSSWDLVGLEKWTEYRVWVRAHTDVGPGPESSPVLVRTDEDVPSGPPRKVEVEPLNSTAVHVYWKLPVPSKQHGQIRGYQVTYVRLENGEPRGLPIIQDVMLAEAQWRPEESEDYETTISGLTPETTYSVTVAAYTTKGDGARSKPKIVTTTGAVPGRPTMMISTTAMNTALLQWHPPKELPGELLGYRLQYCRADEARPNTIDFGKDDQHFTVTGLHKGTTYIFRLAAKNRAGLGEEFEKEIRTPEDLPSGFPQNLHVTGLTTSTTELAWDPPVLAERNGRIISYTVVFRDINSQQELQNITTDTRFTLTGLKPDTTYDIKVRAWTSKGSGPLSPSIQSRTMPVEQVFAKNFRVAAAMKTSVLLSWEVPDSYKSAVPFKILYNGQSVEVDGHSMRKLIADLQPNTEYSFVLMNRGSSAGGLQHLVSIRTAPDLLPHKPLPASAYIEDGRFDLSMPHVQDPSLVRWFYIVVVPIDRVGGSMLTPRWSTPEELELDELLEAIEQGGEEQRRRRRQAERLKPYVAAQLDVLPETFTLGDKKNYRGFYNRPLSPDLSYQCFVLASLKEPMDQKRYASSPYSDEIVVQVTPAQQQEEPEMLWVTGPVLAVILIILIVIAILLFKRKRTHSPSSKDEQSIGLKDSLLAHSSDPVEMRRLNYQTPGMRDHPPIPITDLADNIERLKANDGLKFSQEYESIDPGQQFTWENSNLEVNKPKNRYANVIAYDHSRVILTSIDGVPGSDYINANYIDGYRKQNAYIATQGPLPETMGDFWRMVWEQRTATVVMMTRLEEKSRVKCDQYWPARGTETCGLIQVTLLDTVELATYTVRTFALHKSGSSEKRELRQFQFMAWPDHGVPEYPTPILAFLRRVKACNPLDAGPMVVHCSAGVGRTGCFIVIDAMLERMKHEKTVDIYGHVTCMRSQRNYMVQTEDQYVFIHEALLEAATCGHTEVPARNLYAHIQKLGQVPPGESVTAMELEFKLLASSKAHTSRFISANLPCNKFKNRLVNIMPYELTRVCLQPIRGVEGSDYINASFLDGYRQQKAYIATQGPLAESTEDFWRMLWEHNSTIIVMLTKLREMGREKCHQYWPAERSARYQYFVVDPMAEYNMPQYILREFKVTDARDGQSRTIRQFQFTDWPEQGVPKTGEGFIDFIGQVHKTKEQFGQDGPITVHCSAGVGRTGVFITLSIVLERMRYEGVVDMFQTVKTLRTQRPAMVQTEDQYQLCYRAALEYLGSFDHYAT
Assay [7] deals with Receptor-type tyrosine-protein phosphatase alpha (Homo sapiens, UniProt P18433). The assay is described as follows: Inhibition of PTPRA.
The target in assay [8] is Tyrosine-protein phosphatase non-receptor type 2 (Homo sapiens) (UniProt P17706). In words: Inhibition of PTPN2.

`O=C(O)C(=O)Nc1sc2c(c1C(=O)O)CCCC2`: the Ki (commonly a dissociation constant, usually derived from enzyme kinetics or from competition with a known ligand) in assay [1] turned out to be 100 µM; in assay [2] it was 41 µM; in assay [3], 19 µM.
As for `O=C(O)C(=O)Nc1ccccc1C(=O)O`, the results for the Ki in assay [1], in assay [4] and in assay [3] were 510 µM, 130 µM and 33 µM, respectively.
Consider `O=C(O)C(=O)Nc1sc2c(c1C(=O)O)CCNC2`, for which the Ki was 0.29 µM in assay [5]; more than 2000 µM in assay [1]; 59 µM in assay [2]; 1100 µM in assay [4]; 560 µM in assay [3].
As for `O=C(O)COc1c(C(=O)O)sc(-c2ccccc2)c1Br`, the Ki in assay [6] is more than 500 µM.
`CC1(C)CC(Nc2cccc(-c3sc(C(=O)O)c(OCC(=O)O)c3Br)c2)CC(C)(C)C1` displayed a Ki in assay [6] of more than 1000 µM.
With `O=C(O)C(=O)Nc1ccsc1C(=O)O`, the inhibition constant Ki is 58 µM in assay [5], 260 µM in assay [2], 360 µM in assay [4] and more than 2000 µM in assay [7].
`O=C(O)C(=O)Nc1ccc(I)cc1C(=O)O`: the inhibitory constant (Ki) in assay [5] is 14 µM; in assay [1], 80 µM; in assay [2], 49 µM; in assay [4], 33 µM; in assay [3], 17 µM.
Consider `O=C(O)C(=O)Nc1ccc2cc[nH]c2c1C(=O)O`, for which the Ki in assay [5] was determined as 8 µM; in assay [1], 28 µM; in assay [2], 20 µM; in assay [4] it was 33 µM; in assay [6], 450 µM; in assay [3], 3.6 µM. This compound registered an inhibition constant (Ki) in assay [7] of 180 µM.
For the compound `O=C(O)C(=O)Nc1cc2[nH]ccc2cc1C(=O)O`, the Ki was 14 µM in assay [5]; 16 µM in assay [1]; 56 µM in assay [2]; 66 µM in assay [4]; 550 µM in assay [6]; 6 µM in assay [3]. The compound also yielded a Ki in assay [7] of 800 µM.
In the case of `O=C(O)C(=O)Nc1sccc1C(=O)O`, the figures for the Ki in assay [5], in assay [2] and in assay [4] were 62 µM, 210 µM and 740 µM, respectively.
For the compound `O=C(O)C(=O)Nc1cc2ccccc2cc1C(O)O`, the inhibitory constant (Ki) stood at 9.9 µM in assay [5]; 94 µM in assay [1]; 37 µM in assay [2]; 45 µM in assay [4]; 68 µM in assay [6]; 14 µM in assay [3]. The compound further showed a Ki in assay [7] of 190 µM.
In the case of `O=C(O)C(=O)Nc1sc2c(c1C(=O)O)CCO[C@H]2COC1=NS(=O)(=O)c2ccccc21`, the inhibitory constant (Ki) in assay [5] is 0.6 µM; in assay [1] it was 289 µM; in assay [2], 489 µM; in assay [4], more than 500 µM; in assay [6], 176 µM; in assay [8], 1.1 µM. For the same compound, the Ki was 21 µM in assay [3] and more than 500 µM in assay [7].
Turning to `O=C(O)COc1c(C(=O)O)sc2c1sc1ccccc12`, the inhibition constant (Ki) was 9.2 µM in assay [5], more than 1250 µM in assay [2], 1100 µM in assay [6] and 4.1 µM in assay [8].
